The results in this text go back to ChEMBL document CHEMBL3098059, “Identification by in silico and in vitro screenings of small organic molecules acting as reversible inhibitors of kallikreins” (Eur J Med Chem, 2013).

Series [1] has as its target T1, Suppressor of tumorigenicity 14 protein (Homo sapiens) (UniProt Q9Y5Y6).
T1 sequence (whole entry): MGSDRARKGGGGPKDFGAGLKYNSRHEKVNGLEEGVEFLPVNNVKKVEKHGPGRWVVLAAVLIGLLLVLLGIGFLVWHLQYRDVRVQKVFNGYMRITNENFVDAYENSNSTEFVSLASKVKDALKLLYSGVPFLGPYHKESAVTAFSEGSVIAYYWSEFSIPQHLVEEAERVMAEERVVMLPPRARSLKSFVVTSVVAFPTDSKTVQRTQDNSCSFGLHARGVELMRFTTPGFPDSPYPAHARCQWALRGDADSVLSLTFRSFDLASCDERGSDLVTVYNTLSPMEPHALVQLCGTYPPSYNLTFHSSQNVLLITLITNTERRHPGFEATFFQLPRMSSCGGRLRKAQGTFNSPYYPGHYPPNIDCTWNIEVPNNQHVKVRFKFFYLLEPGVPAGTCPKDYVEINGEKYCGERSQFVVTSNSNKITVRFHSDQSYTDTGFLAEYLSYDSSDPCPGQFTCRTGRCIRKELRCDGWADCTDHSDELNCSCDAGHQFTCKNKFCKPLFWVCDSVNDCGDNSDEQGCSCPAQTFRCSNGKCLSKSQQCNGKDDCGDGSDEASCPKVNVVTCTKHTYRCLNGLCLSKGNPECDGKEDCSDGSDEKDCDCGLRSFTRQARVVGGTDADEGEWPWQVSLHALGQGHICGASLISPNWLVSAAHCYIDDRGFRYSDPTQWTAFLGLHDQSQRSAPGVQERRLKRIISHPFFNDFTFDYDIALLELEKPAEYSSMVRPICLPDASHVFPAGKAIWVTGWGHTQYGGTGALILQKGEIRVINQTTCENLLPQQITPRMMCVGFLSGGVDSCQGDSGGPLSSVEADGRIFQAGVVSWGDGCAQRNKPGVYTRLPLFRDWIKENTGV
Briefly: Reversible inhibition of matriptase (unknown origin) using Boc-Gln-Ala-Arg-AMC as substrate after 15 to 60 mins by fluorescence assay.

Series [2] has as its target Kallikrein-5 (Homo sapiens) (UniProt Q9Y337). As to the kind of experiment: Inhibition of human kallikrein5 using Boc-Val-Pro-Arg-AMC as substrate at 50 uM after 15 mins by fluorescence assay.
In series [3] the target is T2, Kallikrein-7 (Homo sapiens, UniProt P49862). Briefly: Reversible inhibition of human kallikrein7 using Suc-Leu-Leu-Val-Tyr-AMC as substrate after 15 to 60 mins by fluorescence assay.
The target in series [4] is T2, Kallikrein-7. As to the kind of experiment: Inhibition of human kallikrein7 using Suc-Leu-Leu-Val-Tyr-AMC as substrate at 50 uM after 15 mins by fluorescence assay.
The target in series [5] is T3, Kallikrein-14 (Homo sapiens) (UniProt Q9P0G3).
T3 sequence (whole entry): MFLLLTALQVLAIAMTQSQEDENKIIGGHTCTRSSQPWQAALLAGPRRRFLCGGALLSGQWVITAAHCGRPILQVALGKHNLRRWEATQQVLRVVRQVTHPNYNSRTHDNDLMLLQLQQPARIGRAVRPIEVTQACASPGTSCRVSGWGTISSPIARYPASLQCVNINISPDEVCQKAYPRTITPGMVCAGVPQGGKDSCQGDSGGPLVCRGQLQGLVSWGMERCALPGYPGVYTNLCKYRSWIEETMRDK
As to the kind of experiment: Reversible inhibition of human kallikrein14 using Boc-Val-Pro-Arg-AMC as substrate after 15 to 60 mins by fluorescence assay.

Series [6] concerns the target T3, Kallikrein-14 (Homo sapiens). As to the kind of experiment: Inhibition of human kallikrein14 using Boc-Val-Pro-Arg-AMC as substrate at 50 uM after 15 mins by fluorescence assay.
In series [7] the target is T1, Suppressor of tumorigenicity 14 protein (Homo sapiens). As to the kind of experiment: Inhibition of matriptase (unknown origin) using Boc-Gln-Ala-Arg-AMC as substrate at 50 uM after 15 mins by fluorescence assay.
For series [8], the target named is Kallikrein-5 (Homo sapiens) (UniProt Q9Y337). Briefly: Reversible inhibition of human kallikrein5 using Boc-Val-Pro-Arg-AMC as substrate after 15 to 60 mins by fluorescence assay.
A further series deals with T4, Kallikrein-14 (Homo sapiens, UniProt Q9P0G3).
T4 sequence (Q9P0G3 whole entry): T3 sequence (whole entry)
Briefly: Inhibition of human kallikrein14 using Boc-Val-Pro-Arg-AMC as substrate after 15 mins by fluorescence assay.

The target in series [9] is T5, Suppressor of tumorigenicity 14 protein (Homo sapiens, UniProt Q9Y5Y6).
T5 sequence (Q9Y5Y6 whole entry): T1 sequence (whole entry)
As to the kind of experiment: Inhibition of matriptase (unknown origin) using Boc-Gln-Ala-Arg-AMC as substrate after 15 mins by fluorescence assay.

Series [10] is described as follows: Cytotoxicity against human keratinocytes assessed as cell viability at 10 uM after 24 to 48 hrs by neutral red assay. It is filed as cell-based, Keratinocyte. To be noted: keratinocytes, read-out: Activity.

Calls of active or inactive are those of the source. No cut-off for these calls is given here. Some results are limits rather than exact numbers.

Kallikrein-5 (Homo sapiens), sequence (Q9Y337 whole entry): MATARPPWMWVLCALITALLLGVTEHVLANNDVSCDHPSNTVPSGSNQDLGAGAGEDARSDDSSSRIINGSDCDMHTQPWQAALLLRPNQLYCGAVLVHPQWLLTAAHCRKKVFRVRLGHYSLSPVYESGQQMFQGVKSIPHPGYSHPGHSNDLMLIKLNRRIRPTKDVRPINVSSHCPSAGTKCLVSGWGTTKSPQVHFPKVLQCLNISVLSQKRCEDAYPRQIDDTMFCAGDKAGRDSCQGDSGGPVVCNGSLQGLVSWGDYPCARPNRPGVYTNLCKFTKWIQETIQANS
T2 sequence (P49862 30-253 limits assumed): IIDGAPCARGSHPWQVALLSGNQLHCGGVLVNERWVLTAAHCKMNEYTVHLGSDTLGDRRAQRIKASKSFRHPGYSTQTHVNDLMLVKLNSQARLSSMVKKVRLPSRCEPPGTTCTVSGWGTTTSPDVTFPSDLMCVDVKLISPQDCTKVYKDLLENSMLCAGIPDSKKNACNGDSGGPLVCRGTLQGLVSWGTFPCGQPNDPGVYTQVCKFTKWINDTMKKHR

What is called inhibition is how much of the control response was suppressed. `O=c1c2ccccc2nc(CSc2[nH]cnc3ncnc2-3)n1-c1cccc(C(F)(F)F)c1`: the inhibition entry (in [1]; on Kallikrein-7 [3]; in [5]; in series [8]) was “Active” in each case. Moreover, the inhibition (in [2]; at Kallikrein-7 [4]; in series [6]; in series [7]) was below 30% in each case.

Take `CCOc1ccc(/C=C(/C#N)C(=O)Nc2ccc(O)cc2)cc1OC`: the inhibition result (in series [1]; on Kallikrein-7 [3]; in series [5]; in series [8]) was “Active” each time. Also, the inhibition (in series [2]; at Kallikrein-7 [4]; in [6]; in [7]) was below 30% throughout.

Consider `CCOc1cc(/C=C(/C#N)C(=O)Nc2ccc(O)cc2)ccc1OC`, for which the inhibition entry (in series [1]; on Kallikrein-7 [3]; in series [5]; in series [8]) was “Active” throughout. In addition, the inhibition (in series [2]; against Kallikrein-7 [4]; in series [6]; in [7]) was below 30% throughout.

By IC50 is commonly meant the concentration that inhibits the measured activity by half. Lower therefore signals greater potency. On to `COc1ccc(/C=C/C(=O)c2ccc(O)cc2)cc1COc1ccc(Cl)cc1`, for which the values for the IC50 (at Kallikrein-14; in [9]) were 122 µM and 138 µM, respectively. The inhibition entry (in series [1]; on Kallikrein-7 [3]; in series [5]; in series [8]) was “Active” throughout. Also, the viability at 10 µM in series [10] was 30%. Further, the inhibition (in series [2]; at Kallikrein-7 [4]) was below 30% throughout.

`CCOc1cccc(NC(=O)/C(C#N)=C\c2ccc(O)c(OC)c2)c1`: the inhibition result (in series [1]; at Kallikrein-7 [3]; in series [5]; in series [8]) was “Active” in each case. Also, the inhibition (in series [2]; on Kallikrein-7 [4]; in series [6]; in series [7]) was below 30% throughout.

`O=c1c2ccccc2nc(CSc2ccccn2)n1-c1cccc(C(F)(F)F)c1`: the inhibition result (in series [1]; on Kallikrein-7 [3]; in series [5]; in series [8]) was “Active” throughout. For the same compound, the inhibition (in series [2]; at Kallikrein-7 [4]; in series [6]; in series [7]) was below 30% throughout.

For `CCOc1cccc(NC(=O)/C(C#N)=C\c2ccc(O)cc2)c1`, the inhibition result (in series [1]; at Kallikrein-7 [3]; in series [5]; in [8]) was “Active” throughout. The inhibition (in series [2]; against Kallikrein-7 [4]; in [6]; in [7]) was below 30% in each case.

With `COc1cc(/C=C(/C#N)c2nc3ccccc3[nH]2)ccc1OCc1ccccc1`, the inhibition entry (in series [1]; at Kallikrein-7 [3]; in [5]; in series [8]) was “Active” each time. The inhibition (in series [2]; on Kallikrein-7 [4]; in series [6]; in series [7]) was below 30% throughout.
